Data on 14 compounds can be found in patent publication US9376376B2, “Substitute diphenylamine compounds use thereof as antitumor agents” (SINOCHEM CORPORATION, priority 2012, dated 2016).

The test system of one test is lung cancer A549 cell. In words: In vitro cell inhibition assay (MTT method), A549. The test is classed as cell-based, human. The note with it: 48 h incubation. The protocol:
(§1) The human cancer cell lines used for this assay were lung cancer A549 and leukemia HL-60.
(§2) The A549 or HL-60 cells were picked up from cell incubator, after washed for twice using PBS, cells were digested by 0.25% trypsin, and then add medium to terminate the digestion. After cells were collected using centrifuge and re-suspended, count cells under inverted microscope and add medium to make a density was 5×10^4 cells/mL. After 100 μL aliquots were added to each well of 96-well microtiter plates, cells were cultured in 5% incubator for overnight at 37° C., then the different concentration compounds were added to each well. After incubation for 48 h, MTT solution was added to each well and plates were then incubated for 4 h. The MTT tetrazolium was reduced to formazan by living cells. Then the formazan crystals were dissolved though adding DMSO to each well. The absorbance was read at 570 nm with a microplate reader.
A general note: Formazan colour is commonly taken as a measure of viable cells.

The test system of a further test is leukemia HL-60 cells. Put plainly: In vitro cell inhibition assay (MTT method), HL-60. The note with it: 48 h. The format is cell-based, human. The protocol:
as §1, §2

For the compound `N#Cc1cc(Cl)c(Nc2c(Cl)c(Cl)c(C#N)c(Cl)c2C#N)c(Cl)c1` [Compound 6-98], the “Proliferation inhibitory effect of the compounds on A549 cell (% of Control)” value is −2.5 % of Control in the test with lung cancer A549 cell (0.01 μM); −0.7 % of Control in the test on lung cancer A549 cell (0.1 μM); 11.7 % of Control in the test with lung cancer A549 cell (1 μM); 90.1 % of Control in the test with lung cancer A549 cell (10 μM); 93.2 % of Control with lung cancer A549 cell (100 μM). Besides, the “Proliferation inhibitory effect of the compounds on HL-60 cells (% of Control)” value in the test with leukemia HL-60 cells (concentration 0.01 μM) is −2.5 % of Control; in the test on leukemia HL-60 cells (concentration 0.1 μM) it was 10.1 % of Control; in the test with leukemia HL-60 cells (concentration 1 μM) it was 30.0 % of Control; in the test on leukemia HL-60 cells (concentration 10 μM), 91.7 % of Control; in the test with leukemia HL-60 cells (concentration 100 μM), 95.1 % of Control.
Consider `N#Cc1c(Cl)c(Cl)c(Nc2c(Br)cc([N+](=O)[O-])cc2Br)c(C#N)c1Cl` [Compound 6-114], for which the “Proliferation inhibitory effect of the compounds on A549 cell (% of Control)” value in the test with lung cancer A549 cell (0.01 μM) was 10.1 % of Control; with lung cancer A549 cell (0.1 μM) it was 2.8 % of Control; in the test with lung cancer A549 cell (1 μM) it was 11.5 % of Control; in the test with lung cancer A549 cell (10 μM) it was 82.1 % of Control; with lung cancer A549 cell (100 μM), 94.9 % of Control. Further, the “Proliferation inhibitory effect of the compounds on HL-60 cells (% of Control)” value is −0.4 % of Control with leukemia HL-60 cells (concentration 0.01 μM); 10.0 % of Control in the test on leukemia HL-60 cells (concentration 0.1 μM); 20.7 % of Control in the test on leukemia HL-60 cells (concentration 1 μM); 87.5 % of Control in the test with leukemia HL-60 cells (concentration 10 μM); 93.2 % of Control in the test with leukemia HL-60 cells (concentration 100 μM).
Consider `N#Cc1cc(Cl)cc(Cl)c1Nc1c(Cl)c(Cl)c(C#N)c(Cl)c1C#N` [Compound 6-109], for which the “Proliferation inhibitory effect of the compounds on HL-60 cells (% of Control)” value in the test with leukemia HL-60 cells (concentration 0.01 μM) is reported as 0.1 % of Control; in the test with leukemia HL-60 cells (concentration 0.1 μM), 2.2 % of Control; in the test with leukemia HL-60 cells (concentration 1 μM), 2.9 % of Control; in the test with leukemia HL-60 cells (concentration 10 μM), 52.4 % of Control; in the test with leukemia HL-60 cells (concentration 100 μM), 94.4 % of Control.
Regarding `N#Cc1c(Cl)c(Cl)c(Nc2c(Cl)cccc2Cl)c(C#N)c1Cl` [Compound 6-41], the “Proliferation inhibitory effect of the compounds on A549 cell (% of Control)” value was 3.8 % of Control in the test with lung cancer A549 cell (0.01 μM); 0.7 % of Control in the test with lung cancer A549 cell (0.1 μM); 13.1 % of Control in the test on lung cancer A549 cell (1 μM); 84.0 % of Control with lung cancer A549 cell (10 μM); 92.0 % of Control in the test with lung cancer A549 cell (100 μM). In addition, the “Proliferation inhibitory effect of the compounds on HL-60 cells (% of Control)” value in the test on leukemia HL-60 cells (concentration 0.01 μM) is reported as 6.5 % of Control; with leukemia HL-60 cells (concentration 0.1 μM), 3.9 % of Control; with leukemia HL-60 cells (concentration 1 μM) it was 7.8 % of Control; in the test on leukemia HL-60 cells (concentration 10 μM) it was 86.5 % of Control; in the test on leukemia HL-60 cells (concentration 100 μM), 87.9 % of Control.
For `N#Cc1c(Cl)c(Cl)c(Nc2c(Cl)cc([N+](=O)[O-])cc2Cl)c(C#N)c1Cl` [Compound 6-99], the “Proliferation inhibitory effect of the compounds on A549 cell (% of Control)” value in the test on lung cancer A549 cell (0.01 μM) is reported as 0 % of Control; in the test with lung cancer A549 cell (0.1 μM), 0 % of Control; in the test with lung cancer A549 cell (1 μM), 55.0 % of Control; with lung cancer A549 cell (10 μM), 83.6 % of Control; in the test on lung cancer A549 cell (100 μM) it was 86.3 % of Control. Also, the “Proliferation inhibitory effect of the compounds on HL-60 cells (% of Control)” value is on record as 8.6 % of Control in the test on leukemia HL-60 cells (concentration 0.01 μM); 34.2 % of Control in the test on leukemia HL-60 cells (concentration 0.1 μM); 60.2 % of Control with leukemia HL-60 cells (concentration 1 μM); 56.5 % of Control in the test with leukemia HL-60 cells (concentration 10 μM); 54.8 % of Control in the test on leukemia HL-60 cells (concentration 100 μM).
As to `N#Cc1c(Cl)c(Cl)c(Nc2ccccc2)c(C#N)c1Cl` [Compound 6-1], the “Proliferation inhibitory effect of the compounds on A549 cell (% of Control)” value with lung cancer A549 cell (0.01 μM) is 13.1 % of Control; with lung cancer A549 cell (0.1 μM) it was 12.1 % of Control; in the test with lung cancer A549 cell (1 μM), 16.9 % of Control; in the test with lung cancer A549 cell (10 μM), 20.4 % of Control; in the test with lung cancer A549 cell (100 μM), 19.8 % of Control. Also, the “Proliferation inhibitory effect of the compounds on HL-60 cells (% of Control)” value with leukemia HL-60 cells (concentration 0.01 μM) was 11.5 % of Control; in the test on leukemia HL-60 cells (concentration 0.1 μM) it was 10.4 % of Control; with leukemia HL-60 cells (concentration 1 μM) it was 18.8 % of Control; with leukemia HL-60 cells (concentration 10 μM), 63.9 % of Control; in the test on leukemia HL-60 cells (concentration 100 μM), 61.9 % of Control.
With `N#Cc1c(Cl)c(Cl)c(Nc2ccccc2Cl)c(C#N)c1Cl` [Compound 6-3], the “Proliferation inhibitory effect of the compounds on HL-60 cells (% of Control)” value was −7.1 % of Control in the test on leukemia HL-60 cells (concentration 0.01 μM); −6.3 % of Control with leukemia HL-60 cells (concentration 0.1 μM); −2.1 % of Control with leukemia HL-60 cells (concentration 1 μM); 72.2 % of Control with leukemia HL-60 cells (concentration 10 μM); 94.5 % of Control in the test with leukemia HL-60 cells (concentration 100 μM).
Regarding `COC(=O)c1cc(Cl)c(Nc2c([N+](=O)[O-])cc([N+](=O)[O-])c(Cl)c2C)c(Cl)c1` [Compounds 22-107], the “Proliferation inhibitory effect of the compounds on HL-60 cells (% of Control)” value in the test with leukemia HL-60 cells (concentration 0.01 μM) is listed as 2.8 % of Control; with leukemia HL-60 cells (concentration 0.1 μM) it was −9.3 % of Control; in the test on leukemia HL-60 cells (concentration 1 μM), −7.0 % of Control; in the test on leukemia HL-60 cells (concentration 10 μM), 65.4 % of Control; in the test on leukemia HL-60 cells (concentration 100 μM), 94.4 % of Control.
`Cc1c(Cl)c([N+](=O)[O-])cc([N+](=O)[O-])c1Nc1ccc(C#N)cc1Cl` [Compounds 22-61]: the “Proliferation inhibitory effect of the compounds on HL-60 cells (% of Control)” value in the test on leukemia HL-60 cells (concentration 0.01 μM) is 5.2 % of Control; in the test on leukemia HL-60 cells (concentration 0.1 μM), 7.8 % of Control; in the test with leukemia HL-60 cells (concentration 1 μM), 11.0 % of Control; with leukemia HL-60 cells (concentration 10 μM), 85.7 % of Control; with leukemia HL-60 cells (concentration 100 μM), 89.8 % of Control.
`Cc1cc([N+](=O)[O-])cc([N+](=O)[O-])c1Nc1c(Cl)cc(C(F)(F)F)cc1Cl` [Compounds 30-101]: the “Proliferation inhibitory effect of the compounds on HL-60 cells (% of Control)” value with leukemia HL-60 cells (concentration 0.01 μM) was −6.4 % of Control; with leukemia HL-60 cells (concentration 0.1 μM), −14.2 % of Control; in the test on leukemia HL-60 cells (concentration 1 μM), −0.3 % of Control; with leukemia HL-60 cells (concentration 10 μM), 57.3 % of Control; with leukemia HL-60 cells (concentration 100 μM), 80.7 % of Control.
`Cc1c(Cl)c([N+](=O)[O-])cc([N+](=O)[O-])c1Nc1ccc(C(F)(F)F)cc1` [Compounds 22-24]: the “Proliferation inhibitory effect of the compounds on HL-60 cells (% of Control)” value in the test on leukemia HL-60 cells (concentration 0.01 μM) is on record as −22.4 % of Control; in the test with leukemia HL-60 cells (concentration 0.1 μM) it was −16.7 % of Control; in the test with leukemia HL-60 cells (concentration 1 μM) it was −9.3 % of Control; with leukemia HL-60 cells (concentration 10 μM), 82.4 % of Control; in the test with leukemia HL-60 cells (concentration 100 μM), 94.3 % of Control.
Consider `Cc1c(Cl)c([N+](=O)[O-])cc([N+](=O)[O-])c1Nc1c(Cl)cc(Cl)cc1Cl` [Compounds 22-98], for which the “Proliferation inhibitory effect of the compounds on HL-60 cells (% of Control)” value in the test with leukemia HL-60 cells (concentration 0.01 μM) was −7.3 % of Control; with leukemia HL-60 cells (concentration 0.1 μM) it was 1.3 % of Control; in the test with leukemia HL-60 cells (concentration 1 μM), 9.5 % of Control; in the test with leukemia HL-60 cells (concentration 10 μM), 77.7 % of Control; in the test on leukemia HL-60 cells (concentration 100 μM), 91.0 % of Control.
Take `N#Cc1ccccc1Nc1c(Cl)c(Cl)c(C#N)c(Cl)c1C#N` [Compound 6-10]: the “Proliferation inhibitory effect of the compounds on HL-60 cells (% of Control)” value in the test with leukemia HL-60 cells (concentration 0.01 μM) was 21.8 % of Control; in the test on leukemia HL-60 cells (concentration 0.1 μM), 16.1 % of Control; in the test with leukemia HL-60 cells (concentration 1 μM) it was 9.8 % of Control; in the test on leukemia HL-60 cells (concentration 10 μM), 78.5 % of Control; with leukemia HL-60 cells (concentration 100 μM) it was 77.1 % of Control.
Taken in the same sequence, the figures for `Cc1c(Cl)c([N+](=O)[O-])cc([N+](=O)[O-])c1Nc1c(Cl)cc(C#N)cc1Cl` [Compounds 22-104] were 4.1 % of Control, −7.3 % of Control, −2.1 % of Control, 60.5 % of Control and 94.0 % of Control.
